Experimental data: patent US7888355B2, “Compositions and methods for inhibiting growth and metastasis of melanoma” (Burnham Institute for Medical Research, priority 2007, dated 2011)

Columns and labels:
[1] = Tolerability of administration to mice; assay type: in vivo, mouse; conditions: daily administration, doses up to 1 mg/kg
Procedure: (§1) To assess the ability of CSL and CSL derivatives to affect the tumorigenicity and metastasis of melanoma, the mouse SW1 cell lines were used in syngeneic models. Injection of SW1 melanoma cells subcutaneously into C3H mice was followed by daily injections of CSL intraperitoneally (IP). […] Briefly, SW1 cells that stably express GFP were injected s.c into C3H mice. When the tumor reached the size of 50 mm^3, the vehicle, CSL (1 mg/kg), CA16 (0.5 mg/kg) or CA19 (0.5 mg/kg) were administered i.p, every second day for a period of 24 days. Tumor size was measured at the indicated times. Data presented in FIG. 6b represents two experiments.

[2] = test system: SW1 tumors; test: SW1 tumor growth in syngeneic C3H mice; assay type: in vivo, mouse; conditions: 0.5 mg/kg i.p. every second day for 24 days
Procedure: (§2) Tumor growth and metastasis in vivo. GFP-expressing SW1 cells were trypsinized, resuspended in PBS, and injected subcutaneously (1×10^6) into the lower flank of 6 to 7-week-old mice. When tumors reached a size of about 50 mm^3, the indicated compounds (100 μL of the vehicle—10% DMSO, 70% Cremophor/ethanol (3:1), and 20% PBS and 1.0 mg/kg of celastrol or 0.5 mg/kg of the derivatives CA16, CA19) were injected i.p. every alternate day. Body weight and tumor growth were monitored every 2 days. GFP-expressing SW1 tumors were monitored in vivo on shaved mice with a light box illuminated by blue light fiber optics (Lightools Research; Encinitas, Calif.), and imaging was carried out with a digital camera (Nikon D100). Tumors were measured for up to 3 weeks. For metastases studies, LU1205 cells (1×10^6) were injected i.v. into the lateral tail vein of nude mice. At the end of the experiment, the lungs and tumors were excised and weighed. To detect metastatic lesions, lungs were fixed in formalin, embedded in paraffin and subjected to hematoxylin and eosin staining.
as §1

[3] = test system: Human melanoma LU1205 cells; test: LU1205 lung metastasis in nude mice; assay type: in vivo, mouse; conditions: compound every second day, analysis 60 days after injection
Procedure: as §2
The effect of CSL and CSL derivatives, CA16 and CA19, on the metastatic capacity of melanoma cells was then determined. Human melanoma LU1205 cells were injected into the tail vein of nude mice, followed by administration of the compounds every second day. This approach allows monitoring of changes in the number of lesions formed on the lungs, a primary organ for tumor cell growth under this experimental approach. Analysis performed 60 days following injection determined changes in the number and size of metastatic lesions in each of the experimental groups.

[4] = test system: SW1 mouse melanoma; test: SW1 metastatic lesions in syngeneic C3H mice; assay type: in vivo; conditions: SW1 cells s.c. in C3H mice
Procedure: as §2
To further assess the impact of these compounds on the development of metastatic lesions, the SW1 mouse melanoma model using the syngeneic C3H strain was employed. Subcutaneous injection of SW1 cells results in tumor formation at the site of injection followed by metastasis to different sites within 6-8 weeks.

[5] = test system: SW1 cells; test: cells; assay type: cell-based, mouse; conditions: for Activity or EC50 (μM) in SW1 cells: active/inactive wording, concentration given in cell
Procedure: (§3) Cell lines. Mouse melanoma (SW1) and human melanoma (LU1205) cells were maintained in DMEM supplemented with 10% FBS, L-glutamine and antibiotics. The human melanoma cell lines MEWO and WM115 were maintained in RPMI supplemented with 10% FBS and antibiotics. Primary mouse melanocytes were cultured in F-12 media supplemented with 10% FBS, antibiotics, IBMX (isobuthyl-methylxantine), bovine pituitary extract, and TPA.
Mitochondrial activity and apoptosis. Cells were exposed to the chemicals for 12-48 hours as indicated in Results. To measure changes in mitochondrial activity reflective of general cell viability, the ATPLITE ATP detection assay was used according to the manufacturer's recommendations (Perkin Elmer). Apoptosis analysis was performed by flow cytometry of PI-stained cells. The percentage of cells to the left of the diploid G0/1 peak, characteristic of hypodiploid cells that have partially lost DNA, was calculated as percentage of apoptotic cells (Bhoumik et al., PNAS 101:4222-7, 2004). Analysis of changes in Caspase 8 expression pattern was performed using immunoblot analysis. […]
Characterization of CSL and AIGA effects on mouse melanoma cells. The structures of AIGA and CSL are depicted in FIGS. 1a and 1b. AIGA was tested for cytotoxicity at concentrations ranging between 0.1 and 2 μM, whereas CSL was used at a concentration of 0.01 to 0.3 μM. SW1 cells or normal melanocytes were seeded on 96 well plates and 24 h late, cells were treated with the indicated concentrations of ATF2 50-100 peptide, AIGA, or CSL for 20 h. ATF2 50-100 peptide (cloned in mammalian expression vector in frame with penetratin was transfected with the aid of lipofectamine) was used as a positive control. ATP levels were used as an indicator of cell viability and were measured using the ATPLITE ATP detection assay kit. The number of surviving cells upon AIGA treatment was normalized to the number of surviving cells under the control treatment, and the normalized number was designated as the “% Viability.” Results shown in FIGS. 1c-1f represent 3 experiments. Treatment of SW1 melanoma cells with 1 μM of AIGA reduced the viability of melanoma cells to 10%, (FIG. 1c). Treatment of the SW1 cells with 0.05 μM of CSL reduced the viability of melanoma cells to 50%, and 0.1 μM reduced it to 10% (FIG. 1d). […] Normal melanocytes and fibroblasts were used as a control.
Thus, the two compounds were evaluated to determine if they require JNK activity for their effects on melanoma cells. To this end, the ability of AIGA or CSL to affect the viability of melanoma cells in the presence of a JNK inhibitor was tested. SW1 cells, with or without a 30-minute pretreatment with the JNK inhibitor SP600125 (10 μM), were contacted with AIGA or CSL at the indicated concentrations for 20 h. ATP levels were used to measure the cell viability using the ATPLITE kit. The number of surviving cells upon AIGA or CSL treatment was normalized to the number of surviving cells under the control treatment, and the normalized number was designated as the “% Viability.” Shown are representative results from 2 experiments. […] Of note, inhibition of JNK activity was more pronounced at lower concentrations of CSL compared with AIGA. […] To assess whether these compounds affect JNK activity, changes in JNK phosphorylation on residues 183/185, which are required for its kinase activity, were monitored. Western blot analysis for JNK phosphorylation on residues 183/185 was performed on protein extracts that were prepared from cells treated with AIGA at concentrations of 0.5 μM, 1.0 μM, and 2.0 μM and a control with no AIGA treatment. Duplicate samples were treated with JNK inhibitor (SP600125). Total level of JNK was analyzed in parallel. […]

[6] = test system: WM115 cells; test: WM115 melanoma cell viability; assay type: cell-based, human; conditions: active/inactive wording, concentration given in cell
Procedure: as §3
(§4) Mitochondrial activity and apoptosis. Cells were exposed to the chemicals for 12-48 hours as indicated in Results. To measure changes in mitochondrial activity reflective of general cell viability, the ATPLITE ATP detection assay was used according to the manufacturer's recommendations (Perkin Elmer). Apoptosis analysis was performed by flow cytometry of PI-stained cells. The percentage of cells to the left of the diploid G0/1 peak, characteristic of hypodiploid cells that have partially lost DNA, was calculated as percentage of apoptotic cells (Bhoumik et al., PNAS 101:4222-7, 2004). Analysis of changes in Caspase 8 expression pattern was performed using immunoblot analysis.
The effects of CSL and AIGA on the human melanoma cell lines WM115 and MEWO were assessed. AIGA reduced the viability of the human melanoma cultures when added at a concentration of 0.5-2 μM (FIG. 5a and FIG. 5c) whereas CSL reduced their viability at a concentration of 0.1 μM-2 μM in WM115 cells (FIG. 5b) and 0.05 μM-2 μM in MeWO cells (FIG. 5d).

[7] = test system: WM793 cells; test: WM793 melanoma cell viability; assay type: cell-based, human; conditions: active/inactive wording, concentration given in cell
Procedure: as §4

SMILES | Activity or EC50 (μM) in WM115 cells [6] | Activity or EC50 (μM) in WM793 cells [7] | Activity or EC50 (μM) in SW1 cells [5] | further results
CC1=C(O)C(=O)C=C2C1=CC=C1C2(C)CCC2(C)C3CC(C)(C(=O)OC(C)C)CCC3(C)CCC12C (centres unmarked) [CA19] |  |  |  | toxicity or discomfort in mice [1]: did not result in toxicity or any noticeable discomfort; reduction of tumor growth [2]: 5 fold; growth of large, medium and small sized lesions in the lungs [3]: efficient in inhibiting growth of large medium and small sized lesions in the lungs; metastatic lesions [4]: potently exhibit the ability to inhibit large as well as small metastatic lesions, with the exception of the 1-2 mm range
COC(=O)[C@]1(C)CC[C@]2(C)CC[C@]3(C)C4=CC=C5C(=CC(=O)C(O)=C5C)[C@]4(C)CC[C@@]3(C)[C@@H]2C1 [Pristimerin, pristimerin, reference compound] |  |  |  | EC50 ([5]; Mus musculus, numeric EC50 cells of the column, read-out: Activity or EC50 (μM) in SW1 cells): < 0.1 µM
CNC(=O)C1(C)CCC2(C)CCC3(C)C4=CC=C5C(=CC(=O)C(O)=C5C)C4(C)CCC3(C)C2C1 (centres unmarked) [CA13] | inactive | inactive |  | 
CC1=C(O)C(=O)C=C2C1=CC=C1C2(C)CCC2(C)C3CC(C)(C(=O)N4CCCC4)CCC3(C)CCC12C (centres unmarked) [CA06] |  |  | active | 
CC1=C(O)C(=O)C=C2C1=CC=C1C2(C)CCC2(C)C3CC(C)(C(=O)OCc4ccccc4)CCC3(C)CCC12C (centres unmarked) [CA16] |  |  |  | toxicity or discomfort in mice [1]: did not result in toxicity or any noticeable discomfort; decrease in tumor size [2]: about 50%; 1-2 mm and mediastinal lesions [3]: some activity was observed; development of large lung lesions [3]: no impact; development of small sized lesions [4]: opposite effect; metastatic lesions [4]: somewhat active
CC1=C(O)C(=O)C=C2C1=CC=C1C2(C)CCC2(C)C3CC(C)(C(=O)N4CCOCC4)CCC3(C)CCC12C (centres unmarked) [CA08] | inactive | inactive | inactive | 
COc1ccc(CNC(=O)C2(C)CCC3(C)CCC4(C)C5=CC=C6C(=CC(=O)C(O)=C6C)C5(C)CCC4(C)C3C2)cc1 (centres unmarked) [CA01] |  |  | active | 
Cc1c(O)c(O)cc2c1CC=C1[C@@]2(C)CC[C@@]2(C)[C@@H]3C[C@](C)(C(=O)O)CC[C@]3(C)CC[C@]12C [Dihydrocelastrol, dihydrocelastrol, reference compound] |  |  | inactive | 
CC1=C(O)C(=O)C=C2C1=CC=C1C2(C)CCC2(C)C3CC(C)(C(=O)N(C)C)CCC3(C)CCC12C (centres unmarked) [CA05] |  | inactive | active | 
COC(=O)COC(=O)C1(C)CCC2(C)CCC3(C)C4=CC=C5C(=CC(=O)C(O)=C5C)C4(C)CCC3(C)C2C1 (centres unmarked) [CA15] |  |  | Inactive | 
CC1=C(O)C(=O)C=C2C1=CC=C1C2(C)CCC2(C)C3CC(C)(C(=O)NCc4cccnc4)CCC3(C)CCC12C (centres unmarked) [CA03] | Inactive | inactive | active | 
CC1=C(O)C(=O)C=C2C1=CC=C1C2(C)CCC2(C)C3CC(C)(C(=O)N4CCN(C)CC4)CCC3(C)CCC12C (centres unmarked) [CA14] | inactive | inactive |  | 
CC1=C(O)C(=O)C=C2C1=CC=C1C2(C)CCC2(C)C3CC(C)(C(=O)NCc4ccccc4)CCC3(C)CCC12C (centres unmarked) [CA02] | inactive | inactive | inactive | 
CC1=C(O)C(=O)C=C2C1=CC=C1C2(C)CCC2(C)C3CC(C)(C(=O)NC(C)C)CCC3(C)CCC12C (centres unmarked) [CA04] |  | inactive | active | 
CCOC(=O)C1(C)CCC2(C)CCC3(C)C4=CC=C5C(=CC(=O)C(O)=C5C)C4(C)CCC3(C)C2C1 (centres unmarked) [CA18] |  |  |  | ability to induce melanoma cell death, in words ([5]; SW1 cells, compared with celastrol or other derivatives): not that efficient in the SW1 melanoma cells compared to CA19
COCCNC(=O)C1(C)CCC2(C)CCC3(C)C4=CC=C5C(=CC(=O)C(O)=C5C)C4(C)CCC3(C)C2C1 (centres unmarked) [CA07] | inactive |  | active | 
